# Results published in US12233077B2, “Therapeutic treatment of breast cancer based on c-MAF status” (INBIOMOTION S.L., priority 2017, dated 2025).
# What was measured:
# [1] = tested on: patients with invasive stage II or III breast cancer (AZURE trial); test: AZURE trial, effect of MAF amplification on treatment outcomes with adjuvant zoledronic acid (Example 3); assay type: in vivo, human
# Source text: 3,360 patients from 174 centers worldwide were recruited to the AZURE trial between Sep. 4, 2003, and Feb. 16, 2006. Eligible patients had histologically confirmed invasive stage II or III breast cancer of any subtype, with either pathologically involved axillary lymph node metastasis or a T3 or T4 primary tumor treated with curative intent and complete resection of the primary tumor (or planned resection if patients were being treated with neoadjuvant chemotherapy). Other inclusion criteria were age 18 years or older, Karnofsky performance status score 80 or more, and not being pregnant or breastfeeding. Patients were excluded if they had clinical or imaging evidence of distant metastases, current or recent (<1 year) use of bisphosphonates, or pre-existing bone disease likely to require bone-targeted treatment. All patients gave written informed consent. In the UK, patients also provided voluntary specific consent for use of biological materials (primary tumor and blood samples). Before randomization, patients underwent hematological, renal, hepatic function, and staging imaging tests according to institutional protocols. Those confirmed to be eligible were randomly assigned (1:1) to standard adjuvant systemic treatment alone or with zoledronic acid from a central computer-generated schedule held at the Clinical Trials Research Unit, University of Leeds, Leeds, UK. A minimization process that took into account the number of involved axillary lymph nodes, clinical tumor stage, estrogen receptor status, type and timing of systemic therapy, menopausal status, statin use, and treating center was used.
# Patients received standard systemic therapy with (neo-) adjuvant chemotherapy, endocrine therapy, or both, alone (control group) or with 4 mg zoledronic acid given intravenously every 3-4 weeks for the first six doses, every 3 months for eight doses, and every 6 months for five doses to complete 5 years of treatment (zoledronic acid group). Oral calcium and vitamin D supplements were recommended for all patients in the first 6 months of treatment, and continued thereafter at the discretion of the treating physician. Adjuvant systemic treatments and locoregional radiotherapy were used in accordance with the standard protocols of each participating institution.
# The follow-up schedule was similar in both study groups, and included clinical assessments, monitoring of adverse events, and hematological, renal, and hepatic function tests. Routine follow-up imaging was not mandated, but investigations were done for clinically suspected recurrence if deemed appropriate by the treating physician. Recurrence was defined by the date on which it was first suspected, to reduce the risk of ascertainment bias. 91% of recurrences were independently validated by either on-site or telephone based monitoring. After treatment with zoledronic acid was completed, patients were followed up annually for disease and safety endpoints.
# 5 μm thick slices were cut from each TMA block and oriented to match the TMA map to allow identification of each tissue core. The slices were mounted onto Superfrost plus glass slides (Thermo Fisher Scientific, Waltham, MA, USA) and stained with hematoxylin and eosin to confirm the presence of assessable tumor. MAF amplification was assessed with the validated MAFTEST fluorescence in situ hybridization (FISH) with the MAF/D16Z3 probe (Inbiomotion, Barcelona, Spain). A central laboratory (Targos Molecular Pathology, Kassel, Germany) validated the analytical and diagnostic performance of the assay, established acceptance criteria, included appropriate quality controls for each assay, and performed the analyses masked to treatment assignment. Briefly, TMA sections were rehydrated in ethanol series, washed with water, and pretreated at 98° C. for 15 min. Samples were digested with pepsin in a Poseidon Tissue Digestion Kit (Kreatech, Amsterdam, Netherlands) for 30 min, dehydrated in ethanol series, and dried. […]
# [2] = tested on: breast cancer patients (AZURE trial); test: AZURE trial, zoledronic acid treatment effect according to MAF FISH stratification (Example 2); assay type: in vivo, human; details: for HR, risk of bone metastasis (anytime), zoledronic acid treatment / HR, bone metastatic event (anytime), zoledronic acid treatment: cutoff 2.5
# Source text: The MAF FISH assay was produced by Kreatech for Inbiomotion based on Kreatech proprietary FISH technology. The probe set contains two probes: a MAF 16q23 probe plus a D16Z3 probe as control of chromosome 16 centromeric region. The assay was validated using a 16q23/D16Z3 probe (Inbiomotion) and Poseidon Tissue Digestion Kit from Kreatech. The scoring criteria were defined in a fact sheet and as follows: two FISH evaluable results per patient, and the highest value was selected. The scoring algorithm was as follows: 20 cells counted for target and centromere amplification, if the gene count is >2 and ≤3, then 50 cells were counted.
# An overview of the AZURE clinical trial (Coleman et al N Eng J Med 2011; 365: 1396-1405 and AZURE Current Controlled Trials number, ISRCTN79831382 and ClinicalTrials.gov identifier NCT00072020) study design, whose patients were used to validate MAF, is provided in FIG. 2. MAF was validated in a retrospective analysis of the AZURE trial using patient tumor sample prospectively collected under regulatory compliant conditions. Out of the 3,360 patients recruited, 1,769 donated tumor tissue (52.4%). There were 13 TMAs (tissue micro array) (150 patient samples each) (1,769 patients). There were 4 replicas of each TMA using different tissue cores (6,326 (4× patient)). One TMA had only 1 replica and two TMAs had three replicas. Based on the H&E analysis (hematoxylin and eosin) (FIG. 3) (6,326): 3,978 cores were evaluable (63%) and 2,348 were nonevaluable.
# For the FISH assay, there were 2,067 FISH evaluable cores (56%). […] 567 patients were nonevaluable by FISH in any of the 4 replicas (32%).
# With regard to molecular variables, for FISH analysis: MAF copy number: numerical and categorical (+/−cut-off>=2.5) variable; % of nucleic MAF amplified (MAF CN>2):numberical+categorical (cut-off TBD). For the IHC analysis: IHC H-Score: numerical+categorical (cut-off>=200), IHC OD: numerical+categorical (cut-off tBD). The following clinical variables were analyzed: disease-free survival (DFS), invasive disease-free survival (IDFS), overall survival (OS), first recurrence in bone, bone recurrence at any time, time to first DFS event in bone, time to first DFS event not in bone, response to zoledronic acid treatment.
# In analyzing the MAF FISH prognostic value, the patients from the control and treatment arms were pooled for the initial analysis. Optimized cut-offs for each variable to be analyzed were used when indicated. Death as a competing event was used in time to bone metastasis, anytime. The following clinical variables were analyzed: time to bone metastasis (anytime), time to bone metastasis (as first event), IDFS (including ipsilateral invasive breast tumor recurrence, regional invasive breast cancer recurrence, metastatic disease-breast cancer, death attributable to any cause, including breast cancer, contralateral invasive breast cancer, second primary non-breast invasive cancer), and overall survival.
# The control and zoledronic acid treatment arms from the AZURE study described in Example 1 were evaluated to determine the effect of zoledronic acid treatment on MAF-stratified patients.
# [3] = zoledronic acid group (420 patients), median follow-up 84·6 months
smiles,measurement,setting,value
O=P(O)(O)C(O)(Cn1ccnc1)P(=O)(O)O [zoledronic acid],effect on extraskeletal recurrence,"[1]; MAF-negative tumors, nonpostmenopausal at start of treatment",No effect
same,patients who died,"[1]; MAF-negative tumors, zoledronic acid group (321 patients)",18%
same,"number of events, invasive-disease-free survival","[1]; MAF-negative, non-postmenopausal zoledronic acid group (216 patients)",216 (61)
same,"number of events, invasive-disease-free survival","[1]; MAF-negative, postmenopausal zoledronic acid group (105 patients)",105 (29)
same,patients who died,"[1]; MAF-positive tumors, non-postmenopausal at start of treatment, zoledronic acid group (66 patients)",36%
same,patients who died,"[1]; MAF-positive tumors, postmenopausal, zoledronic acid group (33 patients)",30%
same,patients who died,"[1]; MAF-positive tumors, zoledronic acid group (99 patients)",34%
same,"number of events, invasive-disease-free survival","[1]; MAF-positive, non-postmenopausal zoledronic acid group (66 patients)",66 (33)
same,"number of events, invasive-disease-free survival","[1]; MAF-positive, postmenopausal zoledronic acid group (33 patients)",33 (12)
same,patients with an extraskeletal invasive-disease-free survival event,[1]; zoledronic acid group,98
same,patients who had died,[1]; [3],91
same,patients with a first event in bone,[1]; [3],21
same,patients with an invasive-disease-free survival event,[1]; [3],135
same,"number of events, invasive-disease-free survival","[1]; zoledronic acid group, <50 years, MAF-negative (142 patients)",41
same,"number of events, invasive-disease-free survival","[1]; zoledronic acid group, <50 years, MAF-positive (44 patients)",23
same,"number of events, invasive-disease-free survival","[1]; zoledronic acid group, ≥50 years, MAF-negative (179 patients)",49
same,"number of events, invasive-disease-free survival","[1]; zoledronic acid group, ≥50 years, MAF-positive (55 patients)",22
same,"HR, risk of bone metastasis (anytime), zoledronic acid treatment","[2]; MAF FISH not positive patients, death as competing event, p=0.03",0.65
same,"HR, overall survival outcome, zoledronic acid treatment","[2]; MAF negative post menopausal patients, 95% CI 0.31-1.01",0.56
same,"HR, DFS outcome, zoledronic acid treatment","[2]; MAF negative post menopausal patients, 95% CI 0.33-0.95",0.56
same,"HR, bone metastatic event (anytime), zoledronic acid treatment","[2]; MAF non-positive non-post-menopausal patients, p=0.08",0.66
same,"HR, bone metastatic event (anytime), zoledronic acid treatment","[2]; MAF non-positive postmenopausal patients, limited number of events",0.63
same,"HR, bone metastatic event (anytime), zoledronic acid treatment","[2]; MAF positive non-post-menopausal patients, p=0.045",2.44
same,"HR, risk of bone metastasis (anytime), zoledronic acid treatment","[2]; MAF positive patients, death as competing event, non-significant, p=0.22",1.54
same,"HR, bone metastatic event (anytime), zoledronic acid treatment","[2]; MAF positive postmenopausal patients, p=0.26, limited number of events",0.46
same,"HR, risk of bone metastasis at any time","[2]; zoledronic acid arm, MAF FISH not positive (<2.3) compared to MAF FISH positive, death as competing event, p=0.01",0.52
same,"HR, time to recurrence (invasive disease)","[2]; zoledronic acid treatment arm, by MAF FISH status (positive >=2.2), multivariate analysis, p<0.001",0.52
